The numbers were not newly measured in patent US12442091B2, “Electrochemical dehydrogenation, epoxidation, substitution, and halogenation of hydrocarbons and hydrocarbon derivatives” (Wisconsin Alumni Research Foundation, priority 2020, dated 2025), which cites them from elsewhere.

Values after ≈ are worked out from the molar mass of the structure shown.

Regarding `CC(C)Br` [2-bromopropane], the solubility in water was 3200 µg/mL (≈ 26 mM).

Turning to `C=CC` [propene], the solubility in water is 384 µg/mL (≈ 9.13 mM).
